Where two headings read alike, the source gives them in different places.
Key:
[1] = tested on: ICeuI+ Glycolysis− strain; test: D-cycloserine treatment, plate counts over time; type: cell-based, Escherichia coli; conditions: 200 μg/mL D-cycloserine at time 0 and 1.5 hours
[2] = tested on: ICeuI− Glycolysis+ strain; test: D-cycloserine treatment, plate counts over time; type: cell-based, Escherichia coli; conditions: 200 μg/mL D-cycloserine at time 0 and 1.5 hours
[3] = tested on: ICeuI+ Glycolysis+ strain; test: D-cycloserine treatment, plate counts over time; type: cell-based, Escherichia coli; conditions: 200 μg/mL D-cycloserine at time 0 and 1.5 hours
[4] = tested on: ICeuI− Glycolysis− strain; test: D-cycloserine treatment, plate counts over time; type: cell-based, Escherichia coli; conditions: 200 μg/mL D-cycloserine at time 0 and 1.5 hours
parent cells = test: Screen of D-cycloserine concentrations to maintain SimCell purity; type: cell-based, Escherichia coli; conditions: little to no increase in OD
Description: A protocol for minimal cell purification from Heinemann and Ankenbauer was adapted for SimCell purification (12)^a. Mixed cultures of SimCells and parent cells were treated with D-cycloserine to kill actively dividing cells. D-cycloserine was added at a concentration of 200 μg/mL and cells were left to incubate at 37° C. and shake for 1.5 hours before D-cycloserine was added again at the same concentration. After 24 hours of treatment with D-cycloserine, cells were spun down and washed twice with phosphate buffered saline (PBS). When pure SimCell cultures were induced for protein expression, 25 μg/mL D-cycloserine was added every two days to prevent parent cell growth but allow SimCells to be functional.
Further optimization of D-cycloserine concentration ensured pure SimCell populations in the following experiments, and excluded the contribution made by remaining parent cells in SimCell populations. After a screen of D-cycloserine concentrations, 25 μg/mL was determined to be the point where parent cells were killed in the culture evidenced by little to no increase in OD (Table S3) but also permitted protein production or other activities in SimCells. By using D-cycloserine which targets active, parent cells, we were able to distinguish activity from SimCells on a larger, culture-level scale for further characterization.

[5] = tested on: A549 lung cancer cell line; test: Cell viability assay (crystal violet); type: cell-based; conditions: catechol at concentrations as low as 100 μM, 24 hours
[6] = tested on: fibroblast control cell line (Fibroblasts); test: Cell viability assay (crystal violet); type: cell-based; conditions: catechol at concentrations as low as 100 μM, 24 hours
[7] = tested on: glioblastoma (Mo59K) cancer cell line; test: Cell viability assay (crystal violet); type: cell-based; conditions: catechol at concentrations as low as 100 μM, 24 hours
[8] = tested on: rhabdomyosarcoma (RD) cancer cell line; test: Cell viability assay (crystal violet); type: cell-based; conditions: catechol at concentrations as low as 100 μM, 24 hours
[9] = tested on: fibroblasts; A549, Mo59K, and RD cancer cells
SalAR circuit = test: GFP output after induction of the SalAR circuit (pSalAR-GFP) in parent cells; type: cell-based, Escherichia coli
Text: FIGS. 33A-33E: The levels of GFP over time after induction of the SalAR circuit can act as an indicator for the kinetics of catechol production. Production of GFP by parent cells with the pSalAR-GFP plasmid and FIG. 33A without an additional glycolysis pathway (pSEVA224) or FIG. 33B with an additional glycolysis pathway (pSEVA224-GB3). […] FIG. 33C Ratio of fluorescent output of induced cells versus cells not induced with SA. In parent cells GFP production increased by about 1.5 and 2-fold when induced with 100 μM and 500 μM SA, respectively. FIG. 33D Catechol production by E. coli. LB agar plates with aspirin and salicylic acid have no color (top), while catechol is distinctly brown (bottom). When E. coli with pSalAR-GFP was plated on agar with inducers 2 mM Aspirin (bottom middle) or 2 mM salicylic acid (bottom right) catechol was produced and diffused out of the cell, tinting the agar brown. […] FIG. 33E The color of the supernatant darkens as inducer concentration increases, indicating production and export of catechol. SA: salicylic acid, ASA: acetylsalicylic acid (aspirin).

[10] = tested on: fibroblasts; A549, Mo59K, and RD cancer cells; test: Cell viability assay with supplements, all mammalian cell lines; conditions: PBS control

`N[C@@H]1CONC1=O` [D-cycloserine] was tested, and the CFU/mL ([1]; time 0 hr) was 3.5 × 10^5 CFU/mL, the CFU/mL ([1]; time 1.5 hr) was 4.1 × 10^3 CFU/mL and the CFU/mL ([1]; time 5 hr) was 7.2 × 10^2 CFU/mL. The CFU/mL ([1]; time 24 hr) was 0 CFU/mL, the CFU/mL ([2]; time 0 hr) was 1.0 × 10^9 CFU/mL and the CFU/mL ([2]; time 1.5 hr) was 6.9 × 10^8 CFU/mL. The CFU/mL ([2]; time 5 hr) was 4 × 10^7 CFU/mL, the CFU/mL ([2]; time 24 hr) was 8.3 × 10^4 CFU/mL and the CFU/mL ([3]; time 0 hr) was 3.08 × 10^5 CFU/mL. For the same compound, the CFU/mL ([3]; time 1.5 hr) was 2.7 × 10^3 CFU/mL, the CFU/mL ([3]; time 5 hr) was 7.5 × 10^2 CFU/mL and the CFU/mL ([3]; time 24 hr) was 0 CFU/mL. For the same compound, the CFU/mL ([4]; time 0 hr) was 1.8 × 10^9 CFU/mL, the CFU/mL ([4]; time 1.5 hr) was 1.1 × 10^9 CFU/mL and the CFU/mL ([4]; time 5 hr) was 1.3 × 10^7 CFU/mL. For the same compound, the CFU/mL ([4]; time 24 hr) was 1.6 × 10^7 CFU/mL and the “D-cycloserine concentration at which parent cells were killed while SimCell activity was permitted” value (parent cells) was 25 µg/mL.

With `Oc1ccccc1O` [catechol, 1,2-dihydroxybenzene] the cell viability [5] was “significantly decreased the viability”, the cell viability [6] was “less of an adverse effect” and the cell viability [7] was “significantly decreased the viability”. The cell viability [8] was “significantly decreased the viability”.

In the case of `O=C(O)c1ccccc1O` [SA, salicylic acid], the “effect of supplement alone on viability of mammalian cell lines” value (“effect of supplement alone” for short) [9] is reported as “no adverse effects”, the “increase in GFP production, induced versus not induced” value (SalAR circuit; 100 μM SA) is reported as “about 1.5 fold” and the “increase in GFP production, induced versus not induced” value (SalAR circuit; 500 μM SA) is reported as ~2 fold. For the same compound, the “effect of supplement alone” value [10] was “did not cause cell death”.

In the case of `CC(=O)Oc1ccccc1C(=O)O` [aspirin, acetylsalicylic acid], the “effect of supplement alone” value [9] is reported as “no adverse effects”.

Source: US12503704B2, “Modified cell” (Oxford University Innovation Limited, priority 2019, dated 2025)
